From patent US12599592B2, “Therapeutic small molecules for treatment of pulmonary hypertension” (UNIVERSITY OF PITTSBURGH—OF THE COMMONWEALTH SYSTEM OF …, priority 2020, dated 2026)
Where a SMILES comes first, the peptide text is derived from it. The star is where a group is joined. Cbz = O=C(OCc1ccccc1)*

Assays:
[1] = system: Cluster 15 (C15) genes incl. LGALS8; experiment: RT-qPCR of Cluster 15 gene expression in PAECs; assay type: cell-based, human; conditions: PAECs + IL-1β; for IL-1β-induced expression changes in Cluster 15 members SLC9A3R1, LGALS3: 500 nM
Procedure: (§1) Human recombinant galectin-8 (1305-GA-050) was purchased from R&D Systems and was used at a working concentration of 30 nM.
(§2) RT-qPCR analysis: Cells were lysis in 1 ml of QiaZol reagent (Qiagen). Total RNA content was extracted using the RNeasy kit (Qiagen), according to the manufacturer's instructions. Total RNA concentration was determined using a BioTek Synergy multimode plate reader. Messenger RNAs were reverse transcribed to generate cDNA using the Multiscript RT kit (Thermo Fisher Scientific). cDNA for specific gene targets was amplified and quantified via fluorescently-labeled Taqman primer sets and Taqman fast advanced master mix (Thermo Fisher Scientific) using an Applied Biosystems QuantStudio 6 Flex Real-Time PCR System.

Cluster 15 (C15) genes = experiment: RT-qPCR of Cluster 15 gene expression in PASMCs; assay type: cell-based, human; conditions: PASMCs + IL-1β
Description: (§3) Cell culture: Primary human pulmonary artery endothelial cells (PAECs) and human pulmonary artery smooth muscle cells (PASMCs) were purchased from Lonza (302-05A, CC-2581). Of note, the same two male donors were the source of all PAECs in the experiments shown. Two additional male donors were the source for all PASMCs in the experiments shown. Cells from these and any donors were characterized by flow cytometry for consistent expression of cell surface markers and by RNA (RT-qPCR) analysis of endothelial and smooth muscle gene expression. PAECs were cultured in EGM-2 media (CC-3121) along with supplements (CC-4133), and PASMCs were cultured in SmGM-2 culture media (Lonza, CC-3182) at 5% CO2 in a humidified incubator.
as §1
as §2, with “Total RNA content was extracted using the RNeasy kit (Qiagen), according to the manufacturer's instructions.” left out

LGALS8 = experiment: Immunoblot and densitometry of LGALS8 isoforms in PAECs; assay type: cell-based, human; conditions: PAECs + IL-1β
Procedure: as §1
(§4) Immunoblot and densitometry: Cells were lysed in RIPA buffer (Sigma) along with 1× protease inhibitor cocktail (Sigma). Protein lysate was resolved by gradient 4%-15% SDS-PAGE gels and transferred onto a 0.2 μm PVDF membrane (Bio-Rad). Membranes were blocked in 5% non-fat milk in 1×PBST buffer for one hour at room temperature. Later, they were incubated in the presence of the primary antibody overnight at 4° C. and then appropriate HRP-conjugated secondary antibodies (Life Technologies). The following antibodies were used: human LGALS8 (AF1305, RnD Systems), mouse/rat Lgals8 (ab69631, Abcam), pSTAT1 (ab29045, Abcam) and STAT1 (ab47425, Abcam), GSTP1 (ab153949, Abcam), ISCU (14812-1-AP, Prointech), Glutathione (ab19534, Abcam), HIF2A (NB100-122, Novous), α-Tubulin (CP06, Millipore sigma), and ACTB (sc-47778, Santa Cruz). The immunoreactive bands were visualized with the Chemidoc XRS+system (Bio-Rad) using SuperSignal West Femto chemiluminescent substrates (Thermo Fisher Scientific). The images were later quantified using AlphaEaseFC software (Alpha Innotech).

[2] = system: SU5416-hypoxic pulmonary arterial hypertension rats; experiment: SU5416-hypoxia pulmonary arterial hypertension rat model; assay type: in vivo, Sprague-Dawley rats
Procedure: Briefly, 10 week old male Sprague-Dawley rats were injected i.p. with 20 mg/kg of SU5416 (Sigma), placed in normobaric hypoxia (10% O2) for 3 weeks and then transferred to normoxia for 2 weeks. During hypoxic exposure, chambers were opened twice a week for cleaning and replenishment of food and water. […] For BRD2889 vs. vehicle control dosing, i.p. injections every 5 days (5 mg/kg) were administered during the final two weeks of normoxia. Oxygen concentrations were continuously monitored with blood gas analyzers.
Following euthanasia, right ventricle/[left ventricle+septum]
Measurement of GST activity: The GST activity from lung tissue and PAECs was assayed using GST assay kit (Cayman, MI, USA) per the manufacturer's instructions.
Rodent echocardiography: Echocardiography was performed using a 15-45 MHz transthoracic transducer and a Visual Sonics Vevo 3100 system (Fujifilm). Inhaled isoflurane anesthesia was used at 2% in 100% O2 during positioning and hair removal and then decreased to isoflurane 0.8% during imaging.

PAECs [3] = experiment: Apoptosis by caspase-3/7 activity in PAECs; assay type: cell-based, human
Description: as §3, §1
(§5) For hypoxia exposure, cells were plated in 6-well cell culture plates at 1×10^5 cells/well, grown for 24 hr and placed into a normobaric hypoxia chamber (1% O2) for 24 h under specific treatment conditions. Namely, for I-BET and siLGALS8 exposures, cells were either pre-treated with I-BET/vehicle control (VC) or transfected with siLgals8/Scr for 24 h. Then, they were cultured in basal media at 1% 02. After 24 h, caspase activity and mitochondrial superoxide levels were quantified. To detect activation status of pSTAT1/STAT1 by immunoblot, cells were exposed to 8 h of hypoxia.
(§6) In IL-6/sIL-6R+hypoxia experiments, a human recombinant IL-6/IL-6R alpha protein chimera (25 ng/ml, Millipore) was administered at 70-80% confluency for 48 h in complete media along with vehicle control (DMSO, Sigma-41639). BRD2889 (1 uM) vs. vehicle control were added, as indicated, and placed into a hypoxia chamber for 24 h. The hypoxia chamber (modular incubator chamber) was obtained from Billups-Rothenberg Inc. (Del Mar, Calif) and placed in regulated CO2 incubator at 37° C.
Cellular apoptosis: Caspase-3/7 activity was quantified using the Caspase-Glo 3/7 Assay (Promega), according to manufacturer's instructions. Caspase-3/7 activity was normalized to total protein content determined by BCA method (Thermo Fisher Scientific).

chronically hypoxic mice = experiment: Hypoxia-induced pulmonary hypertension mouse model
Description: Animal models: For the hypoxia-induced pulmonary hypertension mice, male C57BL/6J mice (8 weeks old) (RRID:IMSR_JAX:000664) were purchased from Jackson laboratory and acclimatized for 3-4 days in this facility. Subsequently, mice scheduled for normoxic vs. hypoxic exposure were maintained in either normoxia or a normobaric hypoxia chamber for 1 or 3 weeks (OxyCycler, Biospherix Ltd.), where consistent exposure to 10% oxygen and control for temperature and humidity were possible. For testing the activity of I-BET in hypoxia-induced pulmonary hypertension mice, three experimental groups—normoxia+VC (vehicle control), hypoxia+VC (vehicle control), and hypoxia+I-BET were used.
I-BET was dissolved in DMSO at 100× concentration and then made into a working solution in 20% PEG400 and 80% 1×PBS. BRD2889 was made into a working solution of 2.5% DMSO.
Male and female 8 week old Lgals8−/− mice were exposed to hypoxia for 3 weeks. Littermates were used as wildtype (WT) control when comparing with knockout mice.
Immunofluorescent staining: Cryostat sections were cut from OCT-embedded lung tissues at 5-10 μm and mounted on gelatin-coated histological slides. Slides were thawed at room temperature for 10-20 min and rehydrated in wash buffer for 10 minutes. All sections were blocked in 10% donkey serum and exposed to primary antibody and Alexa 488, 568 and 647-conjugated secondary antibodies (Thermo Fisher Scientific). The following primary antibodies were used: Lgals8 (Ab69631, Abcam; 1/200), IL-1β (ab9722, Abcam; 1/200), GSTP1 (ab153949, Abcam; 1:100), ISCU (14812-1-AP, Proteintech; 1:100), cleaved caspase 3 (cs-9661, Cell Signaling; 1/400), α-SMA (F3777, Sigma; 1/200) and CD31 (ab7388, Abcam; 1/200). Images were obtained using Nikon A1 confocal microscope with 40× objective. Small pulmonary vessels (10 vessels/section) that were not associated with bronchial airways were selected for analysis. Intensity of staining was quantified using ImageJ software (NIH). Degree of pulmonary arteriolar muscularization was assessed in OCT lung sections stained for α-SMA by calculation of the proportion of fully and partially muscularized peripheral (<100 μm diameter) pulmonary arteriole to total peripheral pulmonary arterioles (Bertero T et al. J Clin Invest. 2014, 124, 3514-3528).

PAECs [4] = experiment: Global transcriptome microarray in PAECs; assay type: cell-based, human; conditions: IL-1β +/- I-BET762, microarray
Description: The gene expression was normalized with Robust Multiarray Analysis (RMA). For BRD2889, the same approach was employed using Affymetrix Clariom S array on RNA isolated from PAECs treated with BRD2889 or vehicle and subjected to either hypoxia or normoxia. Differentially expressed genes were defined as any gene for which the FDR adjusted p-value was below 0.05 (n=3/grp). Reversed genes were further defined as those genes that were differentially expressed in both (hypoxia versus normoxia) and in (hypoxia+BRD2889 versus hypoxia)+vehicle as well as were regulated in opposite directions. Similarly, for I-BET that were differentially expressed in IL-1β+VC versus control and IL-1β+I-BET versus IL-1β+VC and were regulated in opposite directions. The data for both I-BET and BRD2889 have been submitted to the NCBI Gene Expression Omnibus with accession numbers GSE125508 and GSE160255, respectively.

PAECs [5] = experiment: Mitochondrial superoxide by MitoSOX Red flow cytometry in PAECs; assay type: cell-based, human
Description: as §3, §1, §5
Flow cytometry detection of mitochondrial superoxide: For measuring mitochondrial superoxide, cells were incubated with 5 μM of MitoSOX Red mitochondrial superoxide indicator (Thermo Fisher Scientific) for 10 min in 37° C. CO2 incubator. Next, cells were washed with 1×PBS, trypsinized, and fluorescence (488 nm/580 nm) was measured on flow analyzer (BD LSR FORTESSA or BD LSRII) using BD […] software.

ISCU = experiment: Immunoblot of ISCU and GSTP1 in PAECs; assay type: cell-based, human; conditions: hypoxic PAECs, MG132 5 mM, 2 h
Procedure: as §5, §6
(§7) Protein stability assay: The proteasome inhibitor MG132 (M7449, Sigma) was stored at −20° C. at a concentration of 10 mM diluted in dimethyl sulfoxide (DMSO). PAECs were exposed to MG132 ([…]) vs. DMSO vehicle control for 2 hr under hypoxia, prior to harvesting of cellular lysate for immunoblotting.
as §4

glutathionylated ISCU = experiment: ISCU glutathionylation by immunoprecipitation and immunoblot in PAECs; assay type: cell-based, human; conditions: hypoxic PAECs, MG132 5 mM, 2 h
Procedure: as §7
Immunoblot and densitometry: Cells were lysed in RIPA buffer (Sigma) along with 1× protease inhibitor cocktail (Sigma). Protein lysate was resolved by gradient 4%-15% SDS-PAGE gels and transferred onto a 0.2 μm PVDF membrane (Bio-Rad). Membranes were blocked in 5% non-fat milk in 1×PBST buffer for one hour at room temperature. Later, they were incubated in the presence of the primary antibody overnight at 4° C. and then appropriate HRP-conjugated secondary antibodies (Life Technologies). […] The images were later quantified using AlphaEaseFC software (Alpha Innotech).
Immunoprecipitation: PAECs were transfected with the indicated combinations of siRNAs by Lipofectamine 2000 (Thermo Fisher Scientific) according to the manufacturer's instructions and/or treated with BRD2889 ([…], 24 h). […] After extensive washing, the immunoprecipitated proteins were analyzed by immunoblotting with the indicated antibodies.

[6] = target: glutathione S-transferase pi 1 (GSTP1) (Homo sapiens, UniProt P09211); conditions: literature report; cited from earlier work
[7] = system: normal, non-transformed cells; liver and kidney; conditions: literature report; cited from earlier work
[8] = I-BET762 30 mg/kg i.p. daily, Days 21-35
[9] = PAECs + IL-1β 10 ng/ml 48 h, I-BET762 500 nM vs vehicle
[10] = PAECs, hypoxia 1% O2 24 h, I-BET pre-treatment
[11] = I-BET762 30 mg/kg daily oral gavage, chronic hypoxia
[12] = IL-1β-exposed (48 h) PAECs treated with I-BET and rhGal8 (24 h)
[13] = PAECs, rhGal8 alone (30 nM, 24 h)

Sequence of glutathione S-transferase pi 1 (GSTP1) (P09211 whole entry, species assumed): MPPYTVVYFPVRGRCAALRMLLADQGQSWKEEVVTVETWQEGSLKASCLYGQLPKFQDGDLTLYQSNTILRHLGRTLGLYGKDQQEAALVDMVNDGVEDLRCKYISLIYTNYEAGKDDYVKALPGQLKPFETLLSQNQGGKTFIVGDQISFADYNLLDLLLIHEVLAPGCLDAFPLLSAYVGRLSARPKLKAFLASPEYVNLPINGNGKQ

COc1cc2c(cc1-c1c(C)noc1C)ncc1[nH]c(=O)n([C@H](C)c3ccccn3)c12 [I-BET151]
IL-1β-induced expression changes in Cluster 15 members SLC9A3R1, LGALS3 [1]: reversed

CCNC(=O)C[C@@H]1N=C(c2ccc(Cl)cc2)c2cc(OC)ccc2-n2c(C)nnc21 [I-BET762]
alteration and reversal of C15 genes including LGALS8 (Cluster 15 (C15) genes): not observed
LGALS8-L protein (immunoblot) (LGALS8): reversed the IL-1β-induced increase of the L isoform
LGALS8-L transcript [1]: reversed
LGALS8-M transcript [1]: not altered
IL-1β-induced expression changes in Cluster 15 members SLC9A3R1, LGALS3 [1]: reversed
expression of C15 genes LGALS3, LGALS8, ABCC4, CD47, SLC9A3R1, DAG1 ([1]; I-BET762 500 nM): reversed
extent of reversal of C15 genes LGALS3, LGALS8, DAG1, SLC9A3R1 ([1]; I-BET762 500 nM): near complete reversal
LGALS8 in pulmonary arterioles (immunofluorescence) [2, 8]: decreased
arteriolar muscularization [2, 8]: reduced
cleaved caspase-3 (CC-3) in pulmonary arterioles [2, 8]: decreased
right ventricular systolic pressure (RVSP) [2, 8]: reduced
left ventricular function (LVPW thickness, LVEF, LVFS; echocardiography) ([2]; I-BET762 vs vehicle): did not exhibit altered left ventricular function
apoptosis (caspase-3/7 activity) (PAECs [3]; [9]): reduced the IL-1β-dependent increase
apoptosis (caspase-3/7 activity) (PAECs [3]; [10]): reversed the hypoxia-induced increases
heart rate (chronically hypoxic mice; [11]): without significant effect
pulmonary vascular LGALS8, including in endothelial cells (chronically hypoxic mice; [11]): robustly decreased
pulmonary vascular muscularization (α-SMA stain) (chronically hypoxic mice; [11]): reduced
right ventricular systolic pressure (RVSP) (chronically hypoxic mice; [11]): reduced
downstream apoptosis (cleaved caspase-3) (chronically hypoxic mice; hypoxic mice, most notable at early stage (1 week hypoxia)): reduced downstream apoptosis
LGALS8 in normoxic mice (chronically hypoxic mice; normoxic mice, similar dosing, mean±SEM, vehicle 1±0.02, p=NS): 1.08±0.03 fold change
number of genes altered by IL-1β vs vehicle and reversed by drug (PAECs [4]): 524 genes
mitochondrial superoxide (O2-) levels (PAECs [5]; [9]): reduced the IL-1β-dependent increase
mitochondrial superoxide levels (PAECs [5]; [10]): reversed the hypoxia-induced increases

CC(C)C[C@@H](C=O)NC(=O)[C@H](CC(C)C)NC(=O)[C@H](CC(C)C)NC(=O)OCc1ccccc1 [MG132, reference compound] (Cbz-Leu-Leu-Leu-aldehyde)
ISCU protein (ISCU): reversed the hypoxic down-regulation
GSTP1 or ISCU glutathionylation (glutathionylated ISCU): without affecting

COc1cc(/C=C/C(=O)N2CCC=CC2=O)cc(OC)c1OC [piperlongumine, reference compound]
inhibition of GSTP1 [6]: reported to inhibit
toxicity to normal, non-transformed cells [7]: minimal toxicity

B1: rhGal8: recombinant human galectin-8 (R&D Systems 1305-GA-050) (protein, UniProt O00214 1-317, looked up)
Galectin-8: MMLSLNNLQNIIYNPVIPFVGTIPDQLDPGTLIVIRGHVPSDADRFQVDLQNGSSMKPRADVAFHFNPRFKRAGCIVCNTLINEKWGREEITYDTPFKREKSFEIVIMVLKDKFQVAVNGKHTLLYGHRIGPEKIDTLGIYGKVNIHSIGFSFSSDLQSTQASSLELTEISRENVPKSGTPQLRLPFAARLNTPMGPGRTVVVKGEVNANAKSFNVDLLAGKSKDIALHLNPRLNIKAFVRNSFLQESWGEEERNITSFPFSPGMYFEMIIYCDVREFKVAVNGVHSLEYKHRFKELSSIDTLEINGDIHLLEVRSW
I-BET-induced attenuation of IL-1β-specific apoptosis (caspase 3/7) (PAECs [3]; [12]): reduced the ability of I-BET to decrease
apoptosis (caspase 3/7 activity) (PAECs [3]; [13]): no effect
I-BET-induced attenuation of IL-1β-specific mitochondrial superoxide (PAECs [5]; [12]): reduced the ability of I-BET to decrease
mitochondrial superoxide (PAECs [5]; [13]): no effect
